Like-named read-outs stand apart in the source and are kept apart here.
How the values were obtained:
[1] = system: HCT-116 colorectal cancer cells; details: 10 mg/kg intraperitoneally every other day
Protocol: The tumor has been grown after injecting HCT-116 colorectal cancer cells (10×10^6 cells/0.1 ml of non-serum matrigel medium) to the nude mouse.
The tumor volume and shape in the nude mouse have been observed for 24 days.

cancer cell = details: DAPI staining
Source text: Further, we have examined the apoptotic body stained with DAPI using a fluorescence microscope to investigate the induction of apoptosis by AGM-130.

[2] = system: triple negative cell lines; details: 7 of 10 types of triple negative cell lines
[3] = system: A549 human non-small cell lung cancer cells; details: cited from earlier work
[4] = system: transplanted A549 cell tumor; details: in vivo; cited from earlier work
[5] = system: LDH (Lactate dehydrogenase)
Source text: Further, we have analyzed the secretion of LDH (Lactate dehydrogenase) enzyme to media as a representative necrosis biomarker.

HL-60(TB) = details: 10 μM; leukemia cell line HL-60(TB)
[6] = system: Her2 positive breast cancer cell lines; details: 4 types of Her2 positive breast cancer cell lines
[7] = system: KB oral cavity cancer cells
Protocol: The tumor has been grown after injecting KB oral cavity cancer cells (10×10^6 cells/0.1 ml of non-serum matrigel medium) to the nude mouse. […] The tumor growth has been observed for 28 days.
The tumor volume and shape in the nude mouse have been observed for 28 days.

[8] = system: MDA-MB-231 triple negative breast cancer cells
Source text: After implanting MDA-MB-231 triple negative breast cancer cells to the nude mouse, the tumor has been grown to the 200 mm^3 volume. […] The tumor growth has been observed for 27 days.
The tumor volume and shape in the nude mouse have been observed for 27 days.

## O=C1Nc2ccc([N+](=O)[O-])cc2C1=C1Nc2ccc(O)cc2C1=NO [AGM-130, (2′Z 3′E)-5′-hydroxy-5-nitro indirubin oxime]
[1]; FIG. 12
  volume of tumor: cannot be reduced significantly
[1]; FIG. 13
  volume of tumor: cannot be reduced significantly
Cancer cell
  induction of apoptosis: mitochondria-dependent apoptosis
[2]
  IC50: < 1000 nM
[3]
  cell cycle: arrests the cell cycle of G2/M phase
  proliferation: significantly inhibits the proliferation
[4]
  tumor growth: dose-dependently suppresses
[5]
  apoptosis and necrosis (LDH secretion): apoptosis and necrosis have been induced at the same time
HL-60(TB)
  Growth percent: 3.67%
[6]
  IC50: > 3000 nM
[7]; 5/10/20 mg/kg intraperitoneally every other day, FIG. 11
  volume of tumor: cannot be reduced significantly
[7]; paclitaxel 10 mg/kg positive control
  reduction of volume of tumor compared to paclitaxel: cannot result in significant reduction
[8]; 10 mg/kg intraperitoneally
  tumor volume reduction compared to control group: about 40%
[8]; 10 mg/kg intraperitoneally twice a week, day 0
  volume of tumor, Mean ± S.E.: 268.0 ± 6.1
[8]; 10 mg/kg intraperitoneally twice a week, day 3
  volume of tumor, Mean ± S.E.: 369.7 ± 5.0
[8]; 10 mg/kg intraperitoneally twice a week, day 6
  volume of tumor, Mean ± S.E.: 474.3 ± 6.6
[8]; 10 mg/kg intraperitoneally twice a week, day 9
  volume of tumor, Mean ± S.E.: 634.9 ± 36.2
[8]; 10 mg/kg intraperitoneally twice a week, day 12
  volume of tumor, Mean ± S.E.: 813.5 ± 29.0
[8]; 10 mg/kg intraperitoneally twice a week, day 15
  volume of tumor, Mean ± S.E.: 985.6 ± 44.8
[8]; 10 mg/kg intraperitoneally twice a week, day 18
  volume of tumor, Mean ± S.E.: 1095.7 ± 54.2
[8]; 10 mg/kg intraperitoneally twice a week, day 21
  volume of tumor, Mean ± S.E.: 1119.8 ± 57.7
[8]; 10 mg/kg intraperitoneally twice a week, day 24
  volume of tumor, Mean ± S.E.: 1242.1 ± 76.0
[8]; 10 mg/kg intraperitoneally twice a week, day 27
  volume of tumor, Mean ± S.E.: 1484.9 ± 86.8
[8]; 20 mg/kg intraperitoneally
  tumor volume reduction compared to control group: about 64%
[8]; 20 mg/kg intraperitoneally twice a week, day 0
  volume of tumor, Mean ± S.E.: 248.0 ± 11.0
[8]; 20 mg/kg intraperitoneally twice a week, day 3
  volume of tumor, Mean ± S.E.: 295.4 ± 22.0
[8]; 20 mg/kg intraperitoneally twice a week, day 6
  volume of tumor, Mean ± S.E.: 364.9 ± 23.5
[8]; 20 mg/kg intraperitoneally twice a week, day 9
  volume of tumor, Mean ± S.E.: 457.4 ± 47.3
[8]; 20 mg/kg intraperitoneally twice a week, day 12
  volume of tumor, Mean ± S.E.: 559.5 ± 56.2
[8]; 20 mg/kg intraperitoneally twice a week, day 15
  volume of tumor, Mean ± S.E.: 623.4 ± 51.5
[8]; 20 mg/kg intraperitoneally twice a week, day 18
  volume of tumor, Mean ± S.E.: 668.5 ± 56.8
[8]; 20 mg/kg intraperitoneally twice a week, day 21
  volume of tumor, Mean ± S.E.: 767.2 ± 106.7
[8]; 20 mg/kg intraperitoneally twice a week, day 24
  volume of tumor, Mean ± S.E.: 833.1 ± 139.7
[8]; 20 mg/kg intraperitoneally twice a week, day 27
  volume of tumor, Mean ± S.E.: 894.2 ± 151.6
[8]; 40 mg/kg intraperitoneally
  tumor volume reduction compared to control group: about 70%
[8]; 40 mg/kg intraperitoneally twice a week, day 0
  volume of tumor, Mean ± S.E.: 253.1 ± 8.5
[8]; 40 mg/kg intraperitoneally twice a week, day 3
  volume of tumor, Mean ± S.E.: 313.3 ± 9.7
[8]; 40 mg/kg intraperitoneally twice a week, day 6
  volume of tumor, Mean ± S.E.: 327.5 ± 19.1
[8]; 40 mg/kg intraperitoneally twice a week, day 9
  volume of tumor, Mean ± S.E.: 372.4 ± 8.3
[8]; 40 mg/kg intraperitoneally twice a week, day 12
  volume of tumor, Mean ± S.E.: 444.8 ± 7.3
[8]; 40 mg/kg intraperitoneally twice a week, day 15
  volume of tumor, Mean ± S.E.: 481.9 ± 39.1
[8]; 40 mg/kg intraperitoneally twice a week, day 18
  volume of tumor, Mean ± S.E.: 532.7 ± 27.6
[8]; 40 mg/kg intraperitoneally twice a week, day 21
  volume of tumor, Mean ± S.E.: 620.1 ± 45.2
[8]; 40 mg/kg intraperitoneally twice a week, day 24
  volume of tumor, Mean ± S.E.: 686.2 ± 85.6
[8]; 40 mg/kg intraperitoneally twice a week, day 27
  volume of tumor, Mean ± S.E.: 730.8 ± 73.9
[8]; control group paclitaxel (5 mg/kg)
  tumor volume reduction compared to control group: about 14%

Reference: patent publication US10285979B2, “Breast cancer therapeutic agent containing 5′-hydroxy-5-nitro-indirubin-3′-oxime as active ingredient” (ANYGEN CO., LTD., priority 2016, dated 2019)
